How the values were obtained:
[1] = test system: APP, Tau, αSYN and inflammatory markers in CSF; assay: MCI subjects proof of mechanism study, CSF markers before and after 10 days; assay type: in vivo, human
From the text: (§1) Three Phase I clinical studies have established butanetap's safety. […] Therefore, we conclude that a much lower single daily butanetap dose would be effective in the proposed study.

alpha-synuclein = alpha-synuclein in gut in vivo, PD A53T mice, Western blot
Description: • A. FIG. 5, alpha-synuclein in vitro. […] On the left is a Western blot showing butanetap inhibition of aSYN in relation to Actin standard at concentrations of 0, 0.1, 1, 5 and 10 μM and on the right a graph showing the same data plotted for statistical analysis purposes. • B. FIG. 6, alpha-synuclein brain in vivo. […] The animals were only treated for 2 weeks, so in brain it takes butanetap only 2 weeks to lower levels of alpha-synuclein. • C. FIG. 7, alpha-synuclein in gut in vivo. Gut levels of aSYN following treatment of PD A53T mice with 10 mg/kg for 21 weeks and 21 days reduced αSYN levels in the gut as shown by Western Blot.

[2] = Double Alzheimer/Parkinson phase 2 clinical trial; assay type: in vivo, human
From the text: as §1

rat acute glaucoma model = assay: Acute glaucoma model; assay type: in vivo
From the text: Butanetap's efficacy in treating neurodegeneration in animal models: Restored memory and learning in an APP/PS1 transgenic (tg) mouse model of AD; Restored memory and learning in a Ts65dn mouse model of Down syndrome (DS) [W. Mobley, UCSD, submitted 2020]; Preserved the retina in acute glaucoma [J Sundstrom; Hershey Medical School]; Restored colonic motility in a human SNCAA53T tg mouse model of PD (Kuo et. al., Am J Neurodegener Dis 2019; 8(1):1-15 www.AJND.us/ISSN:216 591X/AJND0086080: Translational inhibition of α-synuclein by Butanetap (Posiphen) normalizes distal colon motility in transgenic Parkinson mice); Preserved memory and learning in traumatic brain injury rats (M-F Chesselet, submitted 2020).
(§2) Butanetap's reversal of the neurotoxic cascade: Butanetap's mechanism of action is related to APP, Tau, and aSYN expression being regulated by RP1 and by iron and the way these proteins contribute to neurodegeneration by accumulating as toxic aggregates that impair axonal transport and synaptic transmission, causing inflammation, and, finally, leading to nerve cell death (as described previously).

[3] = cited from earlier work
[4] = Plasma and brain levels in humans, calculated and extrapolated from mice data
From the text: The doses are provided in mg/kg; mg dose for a 70 kg human; plasma levels in mice and humans (ng/ml); plasma levels in humans (nM); brain levels in mice and humans (ng/gram); oral human efficacious and safe dose (mg/day); IP/P human efficacious and safe dose (mg/day); and IV human efficacious and safe dose (mg/day).

[5] = test system: fully differentiated Down syndrome nerve cells; assay: Vesicle transport in Down syndrome nerve cells; assay type: cell-based
From the text: as §2

[6] = Phase 1 single and multiple ascending dose safety, tolerance, pharmacokinetic studies in healthy volunteers; assay type: in vivo, human; details: Phase I pharmacokinetic analyses
From the text: as §1

[7] = Efficacious concentration in tissue culture; assay type: cell-based
[8] = test system: insoluble (aggregated) tau; assay: Tau in vivo, hTau mice, ELISA; details: in mouse chow, 6 weeks; three of the 4 ELISA assays, FIG. 4
Description: The cells were treated for 4 days with butanetap harvested, solubilized, and tested with antibodies against Tau and phospho-Tau. • B. FIG. 4, Tau in vivo. […] After 6 weeks, mice were killed and the total and insoluble (aggregated) tau was measured. […] Precipitated tau corresponds to tangles in the brain.

[9] = test system: immortalized Mouse Microglia (SIM-A9); assay: Gingipain cytotoxicity on microglia, AlamarBlue viability; assay type: cell-based; details: 48 hours, between 1 and 10 nM
Description: Immortalized Mouse Astrocytes—SV40T (IMA2.1), immortalized Mouse Microglia (SIM-A9) and immortalized neuroblastoma (SH-SY5Y) cells were infected for 48 hours with gingipains HRgpA and RgpB (arginine gingipains), and Kgp (lysine-specific cysteine proteinase—Lys-gingipain, KGP). After 48 hours the cells were assessed for viability with the AlamarBlue assay and the percentage of dead or alive cells versus control was plotted. […] As expected, since neither are dying, […]. […] Therefore, we expect the efficacious buntanetap dose to fight P. gingivalis infection to be the same as to treat Alzheimer's and Parkinson's disease has no impact on the microglia or neuroblastoma survival in the presence of gingipains.

APP and its fragments = assay: APP and fragments in hippocampus of APP/PS1 transgenic AD mice; assay type: in vivo
From the text: GAPDH and Synaptophysin were loading controls. FIG. 2 also includes a collection of graphs showing relative density of APP plotted against control and time after butanetap treatment; relative density of CTFβ plotted against control and time after butanetap treatment; relative density of CTFα plotted against control and time after butanetap treatment; Aβ42 levels in brain tissue plotted against control and time after butanetap treatment; and Aβ40 levels in brain tissue plotted against control and time after butanetap treatment. Finally, FIG. 2 also includes a Western blot showing levels of APP, NSB, CTFβ, and CTFα after butanetap treatment over time (minutes).

[10] = dose 0.014 mg/kg, 1.0 mg for 70 kg
[11] = dose 0.07 mg/kg, 4.9 mg for 70 kg
[12] = dose 0.143 mg/kg, 10.0 mg for 70 kg
[13] = dose 0.16 mg/kg, 11.2 mg for 70 kg
[14] = dose 0.21 mg/kg, 14.7 mg for 70 kg
[15] = dose 0.23 mg/kg, 16.1 mg for 70 kg
[16] = dose 0.29 mg/kg, 20.3 mg for 70 kg
[17] = dose 0.34 mg/kg, 23.8 mg for 70 kg
[18] = dose 0.57 mg/kg, 39.9 mg for 70 kg
[19] = dose 1 mg/kg, 70.0 mg for 70 kg
[20] = dose 1.14 mg/kg, 79.8 mg for 70 kg
[21] = dose 1.71 mg/kg, 119.7 mg for 70 kg
[22] = dose 2.13 mg/kg, 149.1 mg for 70 kg
[23] = dose 2.29 mg/kg, 160.3 mg for 70 kg

Structure (SMILES): CN1CC[C@]2(C)c3cc(OC(=O)Nc4ccccc4)ccc3N(C)C12 (stereo partly drawn) [butanetap, (3aR)-1,3a,8-trimethyl-1,2,3,3a,8,8a-hexahydropyrrolo[2,3-b]indol-5-yl phenylcarbamate]
- aggregating proteins (APP/Aβ, tau/phospho-tau, alpha-synuclein) in CSF ([1]; MCI subjects, 10 days of administration, FIG. 8): normalized
- inflammation ([1]; human CSF of MCI subjects): lowered
- reduction of alpha-synuclein levels in the gut (alpha-synuclein; 10 mg/kg for 21 weeks, p<0.05, FIG. 7): 50.6%
- significant reduction of alpha-synuclein levels in the gut (alpha-synuclein; 10 mg/kg for 21 days): not at 21 days
- axonal and synaptic function ([2]; AD and PD patients): improved
- inflammatory markers ([2]; AD and PD patients): reduced
- neurotoxic protein biomarkers ([2]; AD and PD patients): reduced
- blood brain barrier crossing ([2]; AD and PD patients, once daily): crossed the blood brain barrier
- cognition as measured by ADAS-Cog11 and WAIS coding speed ([2]; AD patients, 80 mg QD, significant versus baseline, not versus placebo): improved
- motor function as measured by MDS-UPDRS (Part II, III, IV and total) ([2]; PD patients, 5, 10, 20, 40, 80 mg QD, maximum improvement for 10 & 20 mg): improved at all doses
- WAIS speed and accuracy ([2]; PD patients, significant versus placebo at 5, 20 and 80 mg): improved
- retina (rat acute glaucoma model; acute glaucoma): Preserved
- nerve cells (rat acute glaucoma model; rat acute glaucoma model): protected
- tolerability ([3]; doses up to 4×60 mg daily×10 days): well tolerated
- terminal half-life ([3]; plasma, all doses): 4.3 to 4.7 h
- Brain levels in humans [4, 10]: 8 ng/gram
- Plasma levels in human [4, 10]: 1 ng/mL
- Plasma levels in humans [4, 10]: 3 nM
- Brain levels in humans [4, 11]: 16 ng/gram
- Plasma levels in human [4, 11]: 2 ng/mL
- Plasma levels in humans [4, 11]: 6 nM
- Brain levels in humans [4, 12]: 29.6 ng/gram
- Plasma levels in human [4, 12]: 3.7 ng/mL
- Plasma levels in humans [4, 12]: 10 nM
- Brain levels in humans [4, 13]: 45.6 ng/gram
- Plasma levels in human [4, 13]: 5.7 ng/mL
- Plasma levels in humans [4, 13]: 17 nM
- Brain levels in humans [4, 14]: 92 ng/gram
- Plasma levels in human [4, 14]: 11.5 ng/mL
- Plasma levels in humans [4, 14]: 32 nM
- Brain levels in humans [4, 15]: 103.2 ng/gram
- Plasma levels in human [4, 15]: 12.9 ng/mL
- Plasma levels in humans [4, 15]: 38 nM
- Brain levels in humans [4, 16]: 112 ng/gram
- Plasma levels in human [4, 16]: 14 ng/mL
- Plasma levels in humans [4, 16]: 41 nM
- Brain levels in humans [4, 17]: 160 ng/gram
- Plasma levels in human [4, 17]: 20 ng/mL
- Plasma levels in humans [4, 17]: 58 nM
- Brain levels in humans [4, 18]: 336 ng/gram
- Plasma levels in human [4, 18]: 42 ng/mL
- Plasma levels in humans [4, 18]: 123 nM
- Brain levels in humans [4, 19]: 720 ng/gram
- Plasma levels in human [4, 19]: 90 ng/mL
- Plasma levels in humans [4, 19]: 264 nM
- Brain levels in humans [4, 20]: 960 ng/gram
- Plasma levels in human [4, 20]: 120 ng/mL
- Plasma levels in humans [4, 20]: 352 nM
- Brain levels in humans [4, 21]: 1600 ng/gram
- Plasma levels in human [4, 21]: 200 ng/mL
- Brain levels in humans [4, 22]: 1920 ng/gram
- Plasma levels in human [4, 22]: 240 ng/mL
- Brain levels in humans [4, 23]: 3040 ng/gram
- Plasma levels in human [4, 23]: 380 ng/mL
- anterograde and retrograde vesicle transport [5]: Normalized
- concentration in brain relative to plasma [6]: about 8 times
- dose found to be efficacious [7]: 1 nM
- amount of insoluble tau [8]: significant reduction
- microglia survival in the presence of gingipains [9]: no impact
- APP and its fragments (all related peptides) in hippocampus (APP and its fragments; FIG. 2): reduced
- duration of reduction of APP and related peptides after the last dose (APP and its fragments; hippocampus): at least 9 hours

Reference: US12582632B2, “Inhibition of neurological injuries due to infections via administration of Butanetap and analogs thereof” (priority 2021, dated 2026)
